Results taken from patent US20160250245A1, “Methods and Pharmaceutical Composition for the Treatment of Polyomavirus Infections” (INSERM (INSTITUT NATIONAL DE LA SANTÉ ET DE LA RECHERCHE …, priority 2013, published 2016).

Key:
BKV (Dunlop) = test: BKV replication in Vero cell line, extracellular BKV DNA load by qPCR; type: cell-based, BK virus; conditions: Vero cells
Protocol: (§1) For each assay, one cell aliquot was thawed and cells cultured for three days in one 25 cm^2 culture flask. Cells were then trypsinized, washed, resuspended and seeded at 1×10^4 cells/well in […] in flat bottom 96-well microplates. After 24 h incubation, cells at 75% confluence were infected with 1×10^9 genomes per well in BK medium (199 medium with 2% FBS, 2% HEPES, 1% penicillin-streptomycin 10000 U/μg final concentration). After 4 h incubation (37° C., 5% CO2), medium was removed and replaced with 200 μL of fresh BK medium after four washes. 72 h later, medium was replaced with fresh BK medium with or without gemcitabine at the indicated final concentrations. After 48 h incubation, cell culture supernatants were harvested and frozen at −80° C.
(§2) Extracellular DNA was extracted from 100 μL frozen supernatants using the automated nucleic acids extractor Nuclisens Easymag (BioMérieux, Marcy l'Etoile, France) following the manufacturer's Generic 2.0.1 procedure. Extracts were resuspended in a final volume of 25 μL buffer 3.
(§3) To quantify extracellular BKV DNA load, a quantitative PCR (qPCR) was done using the following primers (Eurofins MWG Operon) and probe (Applied Biosystem, UK): […]
(§4) Reactions were performed in a total volume of 25 μl with 5 μL of DNA extract, […] TaqMan Universal PCR Master Mix (Applied Biosystems, Hoffmann La Roche, Meylan, France), 6.5 μL H2O, 2.5 μL of each primer at 30 μM and 1 μL of probe at 10 μM.
(§5) Amplification was performed using the Rotor-Gene 6000 (Corbett Life Science) with the following PCR program: 50° C., 2 min; denaturation at 95° C., 10 min; and 45 cycles of 95° C., 15 sec; 60° C., 60 sec. Quantification was calculated with an external calibration curve using BKV plasmid constructs.

Vero cell line = type: cell-based, Cercopithecus aethiops; conditions: Vero cell culture system
Protocol: as §1
(§6) Cytotoxicity was analyzed by two colorimetric assays using the “Cytotoxicity Detection Kit (LDH)” and “Cell proliferation ELISA, BrdU” (Roche Diagnostics, Meylan, France).
The quantity of LDH was measured in cell culture supernatants and cells from every wells used for the quantification of virus replication including infected and non-infected wells and in presence or not of gemcitabine at the end of the test period according to the manufacturer's protocol. Absorbance at 492 nm (sample) and at 620 nm (background) was recorded 30 min after addition of the reaction mixture. Medium alone served as blank. […]

BKV (Dunlop strain) = test: BKV replication in RPTEC primary cells, extracellular BKV DNA load by qPCR; type: cell-based, BK virus
Protocol: (§7) For each assay, one cell aliquot containing 2×10^6 cells was thawed and cells were cultured for six days in one 75 cm^2 culture flask. Cells were then trypsinized, washed, resuspended and seeded at 5×10^4 cells/well in 1 ml medium in flat bottom 24-well collagen-coated microplates. After 48 h incubation, medium was replaced with fresh REBM base medium without grown factors and supplemented with inactivated fetal bovine serum (FBS Brazilian origin, Lonza) and penicillin-streptomycin 10000 U/μg to a final concentration of 2% and 1% respectively. 48 h later, cells at 95% confluence were infected with 1×10^9 genomes per well. After 4 h incubation (37° C., 5% CO2), medium was removed and replaced with 1 ml of fresh medium without grown factors after two washes with and without gemcitabine or cidofovir at the indicated concentrations. 72 h later, at day 3 of treatment, supernatants were harvested and frozen at −80° C. and medium was replaced with fresh medium without grown factors and with the indicated concentrations of gemcitabine or cidofovir. After 48 h incubation, at day 5 of treatment, cell culture supernatants were harvested and frozen at −80° C.
as §2, §3, §4, §5

RPTEC primary cells = test: Cytotoxicity / cell growth by LDH activity in RPTEC primary cells; type: cell-based, human
Protocol: as §7, §6
The quantity of LDH was measured in cell culture supernatants and cells from every wells used for the quantification of virus replication including infected and non-infected wells and in presence or not of gemcitabine at the end of the test period according to the manufacturer's protocol. Absorbance at 492 nm (sample) and at 620 nm (background) was recorded 30 min after addition of the reaction mixture. Medium alone served as blank. Measure of LDH activity in culture supernatants was used to monitoring cell lysis and the activity in cell lysates to monitoring cell viability and mass at 72 and 120 h p.i

T antigen = test: Immunofluorescence of T antigen expression in infected RPTEC cells; type: cell-based, BK virus; conditions: 5 days of treatment
Protocol: (§8) For each assay, one cell aliquot containing 2×10^6 cells was thawed and cells were cultured for six days in one 75 cm^2 culture flask. Cells were then trypsinized, washed, resuspended and seeded at 5×10^4 cells/well in 1 ml medium in flat bottom 24-well collagen-coated microplates. After 48 h incubation, medium was replaced with fresh REBM base medium without grown factors and supplemented with inactivated fetal bovine serum (FBS Brazilian origin, Lonza) and penicillin-streptomycin 10000 U/μg to a final concentration of 2% and 1% respectively. 48 h later, cells at 95% confluence were infected with 1×10^9 genomes per well. After 4 h incubation (37° C., 5% CO2), medium was removed and replaced with 1 ml of fresh medium without grown factors after two washes with and without gemcitabine or cidofovir at the indicated concentrations. 72 h later, at day 3 of treatment, supernatants were harvested and frozen at −80° C. and medium was replaced with fresh medium without grown factors and with the indicated concentrations of gemcitabine or cidofovir. After 48 h incubation, at day 5 of treatment, cell culture supernatants were harvested and frozen at −80° C. […]

VP-1 = test: Immunofluorescence of VP-1 expression in infected RPTEC cells; type: cell-based, BK virus; conditions: 5 days of treatment
Protocol: as §8

SMILES	IC50 (BKV (Dunlop); Betapolyomavirus hominis, 48 h, BKV Dunlop, two days of treatment, read-out: IC50, inhibition of viral replication) [nM]	IC90 (BKV (Dunlop); Betapolyomavirus hominis, 48 h, BKV Dunlop, two days of treatment, read-out: IC90, inhibition of viral replication) [nM]	inhibition of viral replication (BKV (Dunlop); concentration as low as 10 nM, in two days)	IC50 specificity index (Vero cell line)	IC50 (BKV (Dunlop strain); Betapolyomavirus hominis, RPTEC, BKV Dunlop, read-out: IC50, inhibition of viral replication) [nM]	IC90 (BKV (Dunlop strain); Betapolyomavirus hominis, RPTEC, BKV Dunlop, read-out: IC90, inhibition of viral replication) [nM]	inhibitory effect on viral replication, 5 days versus 3 days of treatment (BKV (Dunlop strain); RPTEC)	concentrations repressing BKV replication (BKV (Dunlop strain); summary: two different cellular models, including primary renal epithelial cells) [nM]	toxicity (RPTEC primary cells)	effect on cellular growth (LDH) at higher concentrations (RPTEC primary cells; RPTEC, 50 nM range)	effect on cellular growth measured by the intracellular LDH activity (RPTEC primary cells; infected RPTEC, effective antiviral concentrations (up to 10 nM), day 5)	expression of the early protein antigen T (T antigen)	expression of the late capsid protein VP-1 (VP-1)	concentration range repressing BKV replication (BKV (Dunlop strain); RPTEC, same conditions as gemcitabine)
Nc1ccn(C2OC(CO)C(O)C2(F)F)c(=O)n1 (centres unmarked) [gemcitabine, 4-amino-1-[3,3-difluoro-4-hydroxy-5-(hydroxymethyl)tetrahydrofuran-2-yl]-1H-pyrimidin-2-one]	1.5 to 2	2.5 to 5	totally inhibited	≥ 10	~10	~50	higher after 5 days than after 3 days	~10	no toxicity was observed	seemed to slow down	could suppress the inhibitory effect of viral infection on the cellular growth	inhibited	inhibited	–
Nc1ccn(C[C@@H](CO)OCP(=O)(O)O)c(=O)n1 [cidofovir]	–	–	–	–	–	–	–	–	–	–	–	–	–	μM range
